Reference: US8222274B2, “Pyrrole derivative or salt thereof” (Astellas Pharma Inc., priority 2006, dated 2012)

Key:
human 5-HT2B receptor = target: T1, human 5-HT2B receptor (Homo sapiens, UniProt P41595); assay: 5-HT2B receptor binding test; conditions: human 5-HT2B receptor expressing HEK293-EBNA cell membrane, [3H] Mesulergine
T1 construct: expressed in transfected cells; host or cells: HEK293-EBNA cells (membrane preparation)
Procedure: Test Method (1) 5-HT2B Receptor Binding Test
(i) Preparation of Membrane Sample
(§1) Cultured human 5-HT2B receptor expressing HEK293-EBNA cells were washed with a phosphate buffer (PBS)(−). The cells were peeled off with a scraper in the presence of PBS(−), and the cells were recovered by centrifugation (1,000 rpm, 10 minutes, 4° C.). In the presence of 5 mM tris-hydrochloric acid (Tris-HCl) (pH 7.4) buffer, homogenized using a homogenizer (registered trademark: Polytron (PTA 10-TS)), and centrifugation-treated (40,000×g, 10 minutes, 4° C.). In the presence of 50 mM Tris-HCl (pH 7.4) buffer, suspended using Glass-Teflon (registered trademark) homogenizer. By carrying out centrifugation treatment (40,000×g, 10 minutes, 4° C.), suspended in 50 mM Tris-HCl (pH 7.4) and stored at −80° C.
(§2) (ii) Receptor Binding Test
A total volume of 500 μl containing 50 mM Tris-HCl, a 4 mM CaCl2 (pH 7.4) buffer, a human 5-HT2B receptor expressing HEK293-EBNA cell membrane preparation and a radio-ligand [^3H] Mesulergine (3.1 TBq/mmol) was incubated at 25° C. for 1 hour. The compound was dissolved in 100% dimethyl sulfoxide (DMSO) and diluted to respective concentrations. Binding quantity in the presence of 1 μM ritanserin was regarded as the nonspecific binding, and a result of subtracting the nonspecific binding quantity from the total binding quantity was regarded as the specific binding quantity. After adding 4 ml of 50 mM Tris-HCl buffer (pH 7.4) and filtering under a reduced pressure using a GF/B glass filter, the filter was washed (4 ml×3) with the same buffer. By soaking the glass filter in 5 ml of a liquid scintillator (trade name: Aquasol-2), the radioactivity quantity was measured using a liquid scintillation counter. […] Ex represents example compound number which is described later.

human 5-HT7 receptor = target: T2, human 5-HT7 receptor (Homo sapiens, UniProt P34969); assay: 5-HT7 receptor binding test; conditions: human 5-HT7 receptor expressing CHO cell membrane, [3H] 5-HT
T2 construct: expressed in transfected cells; host or cells: CHO cells (membrane preparation)
Procedure: Test Method (2) 5-HT7 Receptor Binding Test (i) Preparation of Membrane Sample
as §1, with “5-HT7” for “5-HT2B”, “CHO” for “HEK293-EBNA”, “PBS(−).” for “a phosphate buffer (PBS)(−).”, “Tris-HCl” for “tris-hydrochloric acid (Tris-HCl)”
as §2
A total volume of 500 μl containing 50 mM Tris-HCl, a 4 mM CaCl2 (pH 7.4) buffer, a human 5-HT7 receptor expressing CHO cell membrane preparation and a radio-ligand [^3H] 5-HT (3.40 TBq/mmol) was incubated at 25° C. for 1 hour. The compound was dissolved in 100% DMSO and diluted to respective concentrations. Binding quantity in the presence of 10 μM metergoline was regarded as the nonspecific binding, and a result of subtracting the nonspecific binding quantity from the total binding quantity was regarded as the specific binding quantity. After adding 4 ml of 50 mM Tris-HCl buffer (pH 7.4) and filtering under a reduced pressure using a GF/B glass filter, the filter was washed (4 ml×3) with the same buffer. By soaking the glass filter in 5 ml of a liquid scintillator (trade name: Aquasol-2), the radioactivity quantity was measured using a liquid scintillation counter.

male Wistar rats = assay: Defecation suppressing effect at the time of restraint stress loading (rat restraint stress defecation model); format: in vivo; conditions: for suppressing action on defecation / defecation-suppressing action: rat restraint stress, faces excreted during 1 hour after stress loading; for suppressing action on defecation: starting from a dose of 1 mg/kg (p.o.); for number of faces excreted, difference in comparison with the non-administration group: rat restraint stress, 1, 3 or 10 mg/kg administration group, N=10; for defecation-suppressing action: even at a dose of 10 mg/kg p.o.
Procedure: Test method (4) Defecation Suppressing Effect at the Time of Restraint Stress Loading
The IBS-treating effect of the compound (I) of the present invention was evaluated using a test method in which the amount of excreted faces is measured by loading a restraint stress on rats (see “The Journal of Pharmacology Experimental Therapeutics”, (USA), 1992, vol. 261, p. 297-303).
The agent to be tested was administered to male Wistar rats (body weight 250 to 320 g, 10 animals for each group), and a restraint stress was loaded 30 minutes thereafter. A restraint cage (trade name: KN-468, 265 mm in width×95 mm in length×200 mm in height, Natsume Seisakusho, Tokyo) was used for the restraint stress loading, and the number of faces excreted during 1 hour after the stress loading was counted.

5-HT2B receptor = conditions: versus 5-HT1A, 5-HT1B, 5-HT2A, 5-HT2C, 5-HT3, 5-HT6, 5-HT7, α1, M1, D2 and the like; cited from earlier work

T1 sequence (P41595 whole entry): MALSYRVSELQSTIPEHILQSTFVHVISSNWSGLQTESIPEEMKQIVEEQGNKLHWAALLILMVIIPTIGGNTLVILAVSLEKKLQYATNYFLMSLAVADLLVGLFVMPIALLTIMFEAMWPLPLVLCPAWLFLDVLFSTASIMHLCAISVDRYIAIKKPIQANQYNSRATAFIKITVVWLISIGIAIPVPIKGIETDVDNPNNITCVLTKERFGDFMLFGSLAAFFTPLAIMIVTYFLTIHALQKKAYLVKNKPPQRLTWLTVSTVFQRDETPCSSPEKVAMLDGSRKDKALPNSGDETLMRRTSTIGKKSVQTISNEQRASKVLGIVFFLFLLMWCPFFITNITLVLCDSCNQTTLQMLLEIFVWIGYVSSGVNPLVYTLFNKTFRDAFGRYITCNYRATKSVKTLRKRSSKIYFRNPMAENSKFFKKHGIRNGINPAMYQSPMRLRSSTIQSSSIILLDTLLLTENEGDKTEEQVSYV
T2 sequence (P34969 whole entry): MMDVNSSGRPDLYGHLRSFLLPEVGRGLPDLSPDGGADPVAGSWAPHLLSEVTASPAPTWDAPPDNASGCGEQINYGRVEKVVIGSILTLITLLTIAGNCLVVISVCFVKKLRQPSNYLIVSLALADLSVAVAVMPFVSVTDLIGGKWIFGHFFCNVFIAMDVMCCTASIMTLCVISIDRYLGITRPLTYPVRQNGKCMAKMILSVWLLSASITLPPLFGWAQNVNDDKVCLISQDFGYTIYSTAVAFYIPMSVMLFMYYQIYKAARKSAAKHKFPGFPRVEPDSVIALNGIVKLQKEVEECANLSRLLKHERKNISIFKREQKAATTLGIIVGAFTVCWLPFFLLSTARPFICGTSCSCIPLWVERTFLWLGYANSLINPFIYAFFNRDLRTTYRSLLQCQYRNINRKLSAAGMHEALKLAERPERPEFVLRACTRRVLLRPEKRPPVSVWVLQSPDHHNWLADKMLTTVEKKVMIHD

Row | Compound | Ki (human 5-HT2B receptor) [nM] | Ki (human 5-HT7 receptor) [nM] | suppressing action on defecation (male Wistar rats) | number of faces excreted, difference in comparison with the non-administration group (male Wistar rats) | defecation-suppressing action (male Wistar rats) | 5-HT2B receptor-selective by a factor (5-HT2B receptor) [times]
1 | Cc1c(C(=O)NCCN(C)C)cc(C(C)(C)C)n1CCc1ccc(F)cc1 [Example 2, 5-tert-butyl-N-[2-(dimethylamino)ethyl]-1-[2-(4-fluorophenyl)ethyl]-2-methyl-1H-pyrrole-3-carboxamide] | 7.7 | 1.1 |  |  |  | 
2 | Cc1c(C(=O)N=C(N)N)c(C)n(CCc2ccc(F)cc2)c1C(C)(C)C [Example 142] | 3.7 | 1.5 |  |  |  | 
3 | Cc1c(C(=O)N[C@H]2CCN(C)C2)c(C)n(CCc2ccc(F)cc2)c1C(C)(C)C [Example 218] | 9.2 | 4.3 |  |  |  | 
4 | Cc1c(C(=O)N=C(N)N)cc(-c2ccccc2)n1Cc1ccco1 [Example 98] | 9.6 | 28 |  |  |  | 
5 | Cc1c(C(=O)N=C(N)N)cc(C2CCCC2)n1CCc1ccc(F)cc1 [Example 52] | 0.48 | 1.3 |  |  |  | 
6 | Cc1c(C(=O)N[C@@H]2CCN(C)C2)c(C)n(CCc2ccc(F)cc2)c1C(C)(C)C [Example 217] | 2.3 | 8.2 |  |  |  | 
7 | Cc1c(C(=O)N[C@H]2CCN(C)C2)cc(C(C)(C)C)n1CCc1ccc(F)cc1 [Example 153] | 12 | 6.5 | significant suppressing action |  |  | 
8 | Cc1c(C(=O)NC[C@@H]2CCCN2C)cc(C(C)(C)C)n1CCc1ccc(F)cc1 [Example 161] | 8.4 | 5.3 | significant suppressing action |  |  | 
9 | CC(C)c1cc(-c2ccc(F)c3ccccc23)nc(N)n1 [RS-127445, 2-amino-4-(4-fluoronaphth-1-yl)-6-isopropylpyrimidine] |  |  |  | Significant difference was not found | did not show defecation-suppressing action | ≥ 1000
10 | Cc1c(C(=O)NCCN(C)C)cc(Cc2ccc(F)cc2)n1CCc1ccc(F)cc1 [Example 196] | 7.2 | 1.8 |  |  |  | 
11 | Cc1c(C(=O)NCCN(C)C)cc(C(C)(C)C)n1OCc1ccc(F)cc1 [Example 211] | 7.5 | 3.1 |  |  |  | 
12 | Cc1c(C(=O)NC[C@H]2CCCN2C)cc(C(C)(C)C)n1CCc1ccc(F)cc1 [Example 163] | 7.1 | 4.1 |  |  |  | 
13 | Cc1c(C(=O)NCCN(C)C)cc(-c2ccsc2)n1CCc1ccc(F)cc1 [Example 187] | 0.68 | 11 |  |  |  | 
14 | CC1CCN(CC[C@H]2CCCN2S(=O)(=O)c2cccc(O)c2)CC1 [SB-269970, (R)-3-(2-(2-(4-methylpiperidin-1-yl)ethyl)pyrrolidine-1-sulfonyl)phenol] |  |  |  | Significant difference was not found | did not show the defecation-suppressing action | 
15 | Cc1c(C(=O)N[C@@H]2CCN(C)C2)cc(C(C)(C)C)n1CCc1ccc(F)cc1 [Example 154] | 2.1 | 14 | significant suppressing action |  |  | 
